Experimental data as given in US5210193A, “Piperazine derivatives” (American Cyanamid Company, priority 1990, dated 1993).

Key:
[1] = test system: Staphylococcus aureus Smith; assay: in vivo antibacterial activity of Example 131, survival of infected mice (Table IV); design: species or system Charles River CD-1 female mice
Description: (§1) The in vivo antibacterial activity of 1-cyclopropyl-6-fluoro-7-[3-(fluoromethyl)-1-piperazinyl]-1,4-dihydro-4-oxo-3-quinolinecarboxylic acid (Example 131) was established in the following test.
(§2) Charles River CD-1 female mice, weighing 20±2 g were infected with either Staphylococcus aureus Smith or Escherichia coli 311. A single oral or subcutaneous dose of 1-cyclopropyl-6-fluoro-7-[3-(fluoromethyl)-1-piperazinyl]-1,4-dihydro-4-oxo-3-quinolinecarboxylic acid was administered 1/2 hour after infection. […]

Escherichia coli 311 = assay: as above; design: species or system Charles River CD-1 female mice
Description: as §1, §2

[2] = subcutaneous, 0.5 mg/kg single dose
[3] = subcutaneous, 1 mg/kg single dose
[4] = subcutaneous, 2 mg/kg single dose

SMILES: O=C(O)c1cn(C2CC2)c2cc(N3CCNC(CF)C3)c(F)cc2c1=O (stereo not drawn) [Example 131, 1-Cyclopropyl-6-fluoro-7-[3-(fluoromethyl)-1-piperazinyl]-1,4-dihydro-4-oxo-3-quinolinecarboxylic acid]
- Survival Ratio 7 Days After Infection ([1]; oral, 1 mg/kg single dose): 0/15
- Survival Ratio 7 Days After Infection ([1]; oral, 2 mg/kg single dose): 2/15
- Survival Ratio 7 Days After Infection ([1]; oral, 4 mg/kg single dose): 10/15
- Survival Ratio 7 Days After Infection ([1]; oral, 8 mg/kg single dose): 15/15
- Survival Ratio 7 Days After Infection [1, 2]: 0/15
- Survival Ratio 7 Days After Infection [1, 3]: 2/15
- Survival Ratio 7 Days After Infection [1, 4]: 14/15
- Survival Ratio 7 Days After Infection ([1]; subcutaneous, 4 mg/kg single dose): 15/15
- Survival Ratio 7 Days After Infection (Escherichia coli 311; oral, 0.12 mg/kg single dose): 0/10
- Survival Ratio 7 Days After Infection (Escherichia coli 311; oral, 0.25 mg/kg single dose): 1/10
- Survival Ratio 7 Days After Infection (Escherichia coli 311; oral, 0.5 mg/kg single dose): 3/10
- Survival Ratio 7 Days After Infection (Escherichia coli 311; oral, 1 mg/kg single dose): 7/10
- Survival Ratio 7 Days After Infection (Escherichia coli 311; oral, 2 mg/kg single dose): 10/10
- Survival Ratio 7 Days After Infection (Escherichia coli 311; subcutaneous, 0.12 mg/kg single dose): 0/10
- Survival Ratio 7 Days After Infection (Escherichia coli 311; subcutaneous, 0.25 mg/kg single dose): 2/10
- Survival Ratio 7 Days After Infection (Escherichia coli 311; [2]): 7/10
- Survival Ratio 7 Days After Infection (Escherichia coli 311; [3]): 10/10
- Survival Ratio 7 Days After Infection (Escherichia coli 311; [4]): 10/10
